A short description of series [1]: in vitro. Conditions: human.
Series [2] concerns the target cathepsin B (Homo sapiens, UniProt P07858). Briefly: Cathepsin B inhibition (preliminary, not shown). Type of series: biochemical. Conditions: preliminary results.
In series [3] the target is cathepsin L (Homo sapiens, UniProt P07711). The experiment in a line: Cathepsin L inhibition (preliminary, not shown). The series is classed as biochemical. Conditions: preliminary results.
Series [4] relates to trypsin. Briefly: Trypsin inhibition (preliminary, not shown). The series is classed as biochemical. Conditions: preliminary results; for inhibition of trypsin (in words): 50 μM.
Series [5] has as its system HK cells, transporter 28. The experiment in a line: HCHT imaging: inhibition of cytosolic delivery of CTO transporter 28. The series is classed as cell-based, Human. Conditions: for IC50 / IC15 / MIC (concentration needed to reach 15% inhibition): inhibitor 1 h. Details: key to inhibition of CTO 28 uptake (heatmap): –: −: inactive; ++: qualitative inhibition of SC2 uptake. The procedure: (§1) Uptake inhibition was measured by the automated HCHT imaging used already to elaborate on cytosolic delivery. For inhibitor screening, HK cells in multiwell plates were incubated with increasing concentrations of inhibitors, followed by fluorescent transporters 28, 31, and 32 at a constant concentration. […] If inhibitors are removed before the addition of transporters 28, 31, and 32, the method is referred to as “pre-incubation”. This is of interest to minimize exchange between the transporter and the inhibitor but is often problematic because dynamic covalent exchange between the inhibitor and cellular target can also be reversed and thus lost. The complementary “co-incubation” operates without inhibitor removal before the addition of transporters 28, 31, and 32.
(§2) 536/40 nm emission filter, and red with 531/40 nm excitation filter and 593/40 nm emission […]
(§3) 4.3. HCHT Inhibitor Screening
(§4) Pre-Incubation Method. As in ref. S1. HeLa Kyoto cells were seeded at 8 ×10^4 cells/mL in FluoroBrite DMEM + 10% FBS on μ-Plate 96-well Black ibiTreat sterile and incubated at 37 °C with 5% CO 2 for 24 h. Then, the medium was removed and cells were washed with PBS ([…]), fresh FluoroBrite DMEM medium (4 × 150 μL/well) was added into the cells using a plate washer (Biotek EL406®), keeping a final volume of 135 μL/well. Different concentrations of the inhibitors were prepared by serial dilution with 10% final concentration DMSO (10× in PBS). The solution of compounds 4 and 33 was prepared final DMSO concentration of 10% in each dilution (10× in PBS). These inhibitor solutions (10× final concentration), transporter 28 (10× in DMEM), transporters 31 and 32 (10× in PBS) a solution of HOE (100 μg/mL) and PI (10 μg/mL) in PBS were prepared freshly in a 96-well V-bottom plate before adding to the cells. The inhibitor solutions from the V-bottom plate were added to the cells (15 μL/well) in a final volume of 150 μL/well using an electronic multichannel pipette and cells were incubated for 1 h at 37 °C with 5% CO 2. After this incubation, cells were washed again with PBS and DMEM using the plate washer (in the way mentioned above), and transporter 28 , 31 or 32 from the V-bottom plate was added (15 μL/well) to the cells in a final volume of 150 μL/well. A final concentration of each transporter 28 , 31 and 32 was 5 μM, 10 μM and 0.5 μM, respectively, except for the control wells, where only PBS was added (15 μL/well). Cells treated with transporter 28 or 31 were incubated for 30 min, and cells treated with 32 were incubated for 2 h at 37 °C with 5% CO 2. After that, the cells were washed with PBS and DMEM using the plate washer, and the solution of Hoechst 33342 and PI from the V-bottom plate was added (15 μL/well) to the cells in a final volume of 150 μL/well. After 15 min of incubation at 37 °C with 5% CO 2, the cells were washed and kept in clean FluoroBrite
(§5) DMEM. For live cell imaging, samples were kept at 37 °C with 5% CO 2 during the microscope imaging. The distribution of fluorescence stained cells was analyzed without fixing using an […]

In series [6] the test system is HeLa Kyoto cells. Briefly: Relative viability (HOE/PI) in HCHT screening. The protocol:
One advantage of HCHT imaging of cellular uptake compared to flow cytometry[38],[42],[43] is that it simultaneously gives information on toxicity and intracellular localization. […] Information on the intracellular localization of reporters can be quantified through segmentation of cellular compartments stained with specific markers.[52]
as §1
Relative cell viability ( RV) for each condition in the presence of inhibitors was calculated […]
of the relative cell viability ( RVrel) to the concentration of inhibitors ( cinhibitor ) was plotted and fitted with Equation (S19) to retrieve the concentration causing 50% cell growth inhibition (RV50) value and the Hill coefficient ( n).

Series [7] relates to HK cells, transporter 31. Briefly: HCHT imaging: inhibition of cytosolic delivery of ETP transporter 31. The series is classed as cell-based, Human. Conditions: inhibitor 1 h; for IC50 / IC15: Homo sapiens; for IC50: read-out: IC50 (concentration needed to reach 50% inhibition), transporter 31 10 μM; for IC15: read-out: MIC (concentration needed to reach 15% inhibition), transporter 31 10 μM. The procedure:
as §1, §2, §3, §4, §5

Series [8] relates to HeLa Kyoto cells. Conditions: with transporter 31; pre-incubation (P); cited from earlier work.
The test system of series [9] is HK cells, transporter 31. Conditions: transporter 31 10 μM, pre-incubation (P), cited from earlier work; for IC50: read-out: IC50 (concentration needed to reach 50% inhibition).
The test system of series [10] is HK cells, transporter 32. Details: method as in PMID 34173696. Conditions: transporter 32 0.5 or 1 μM, pre-incubation (P), cited from earlier work; for IC50: read-out: IC50 (concentration needed to reach 50% inhibition).
Setting [11] is: Homo sapiens, 1 h, read-out: IC50 (concentration needed to reach 50% inhibition), transporter 28 5 μM, co-incubation (C).
[12] abbreviates: Homo sapiens, 1 h, read-out: MIC (concentration needed to reach 15% inhibition), transporter 28 5 μM, co-incubation (C).
Where [13] appears, read: with transporter 28, co-incubation (C).
Where [14] appears, read: transporter 28 5 μM, co-incubation (C).
[15] abbreviates: with transporter 31, co-incubation (C).
Setting [16] is: Homo sapiens, read-out: IC50 (concentration needed to reach 50% inhibition), transporter 28 5 μM, pre-incubation (P).
[17] abbreviates: transporter 28 5 μM, pre-incubation (P).
[18] abbreviates: with transporter 28, pre-incubation (P).

In brackets after ≈: the same amount, converted by molar mass. Read-outs that look alike come from different tables or passages of the source. Some results are limits rather than exact numbers.

Chain of cathepsin L (P07711 114-333, species assumed): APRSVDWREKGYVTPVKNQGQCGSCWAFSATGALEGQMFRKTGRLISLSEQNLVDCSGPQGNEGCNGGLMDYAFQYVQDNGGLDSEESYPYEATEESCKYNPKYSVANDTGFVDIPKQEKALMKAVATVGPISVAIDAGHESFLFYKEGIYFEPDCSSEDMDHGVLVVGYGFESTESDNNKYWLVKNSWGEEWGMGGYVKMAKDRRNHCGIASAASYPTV

For the compound `CC(C)(C)[Si](C)(C)OC1CS(=O)(=O)SCC1OC(=O)NCCCCCCNC(=O)OC1CSS(=O)(=O)CC1O[Si](C)(C)C(C)(C)C` (stereo not shown) [Compound 4], the viability at 7 h, 10 µM in series [1] came to 103%. Moreover, in series [2] (10 μM), the “inhibition of cathepsin B (in words)” value was “neither cathepsin L nor B”. Besides, in [3] (10 μM), the “inhibition of cathepsin L (in words)” value was “neither cathepsin L nor B”. For the same compound, the inhibition of trypsin in series [4] (10 μM, not shown) is recorded as > 80%. Also, the IC50 in series [5] (setting [11]) was 16 ± 7 µM; in [5] (read-out: IC50 (concentration needed to reach 50% inhibition), transporter 28 5 μM, co-incubation (C)), ~15 µM. Also, the IC15 in series [5] (setting [12]) turned out to be 0.3 µM. For the same compound, the “RV50 (concentration needed to lower relative viability by 50%)” value in series [6] (setting [13]) is >5 µM.

Turning to `CC(C)(C)OC(=O)NCCNC(=O)O[C@H]1CSS(=O)(=O)C[C@H]1O` [Compound 34], in series [1], the viability at 7 h, 50 µM is 76%. Besides, in series [2] (50 μM), the “inhibition of cathepsin B (in words)” value was “inhibit only cathepsin B”. The IC50 in series [7] (1 h, co-incubation (C)) is > 100 µM; in series [7] (pre-incubation (P)), > 100 µM; in [5] (setting [11]), 26 µM. Further, the IC15 in [7] (1 h, co-incubation (C)) amounted to 16 µM; in series [7] (1 h, pre-incubation (P)) it was 3 µM; in series [5] (setting [12]) it was 1.2 µM. The “MIC (concentration needed to reach 15% inhibition)” value in [7] (transporter 31 10 μM, pre-incubation (P)) is 3 µM (≈ 1.11 µg/mL); in series [5] (setting [14]) it was 1 µM. Also, the “inhibition of cathepsin L (in words)” value in series [3] (50 μM) is “inhibit only cathepsin B”. Besides, the “inhibition of trypsin (in words)” value in series [4] is listed as “inhibit only cathepsin B”. In addition, the “RV50 (concentration needed to lower relative viability by 50%)” value is >50 µM in series [6] (setting [13]); >100 µM in [6] (setting [15]); >100 µM in series [6] (with transporter 31, pre-incubation (P)).

As to `O=C(N[C@H]1CCS(=O)(=O)SC1)N[C@H]1CCS(=O)(=O)SC1` [Compound 35], the viability at 7 h, 50 µM in series [1] worked out at 96%. Further, the “inhibition of cathepsin B (in words)” value in [2] (50 μM) is “inhibit only cathepsin B”. For the same compound, the IC50 in series [7] (1 h, co-incubation (C)) turned out to be 51 µM; in series [5] (setting [11]), 25 µM. Moreover, the IC15 in series [7] (1 h, co-incubation (C)) was determined as 9 µM; in [5] (setting [12]), 3.5 µM. Besides, the “inhibition of cathepsin L (in words)” value in [3] (50 μM) was “inhibit only cathepsin B”. For the same compound, the “inhibition of trypsin (in words)” value in [4] was “inhibit only cathepsin B”. Also, the “MIC (concentration needed to reach 15% inhibition)” value in series [5] (setting [14]) came to 4 µM. Besides, the results for the “RV50 (concentration needed to lower relative viability by 50%)” value in series [6] (setting [13]) and in [6] (setting [15]) were >50 µM and >100 µM, respectively.

In the case of `CCN1C(=O)C2SSSSC1C(=O)N2CC(=O)O` (stereo not shown) [Compound 47, reference compound], the “RV50 (concentration needed to lower relative viability by 50%)” value in series [8] is 35 µM; in series [6] (setting [18]) it was >10 µM. Moreover, the results for the IC50 in series [9], in [10] and in series [5] (setting [16]) were 1.3 µM, 50 µM and > 10 µM, respectively. The viability at 7 h, 50 µM in [1] came out at 70%. The “MIC (concentration needed to reach 15% inhibition)” value in [10] is 2 µM (≈ 0.653 µg/mL); in series [5] (setting [17]), >10 µM. Also, the IC15 in series [5] (Homo sapiens, read-out: MIC (concentration needed to reach 15% inhibition), transporter 28 5 μM, pre-incubation (P)) is > 10 µM. Further, in series [5] (pre-incubation conditions), the “inhibition of CTO 28 uptake (heatmap)” value was “–”.

For `CC(=O)/C=C1/C(=O)N(C)c2ccccc21` [Compound 48, super-cinnamaldehyde, reference compound], in series [8], the “RV50 (concentration needed to lower relative viability by 50%)” value is >20 µM. Also, in series [9], the IC50 is 4 µM and the “MIC (concentration needed to reach 15% inhibition)” value is <1 µM. In addition, in [1], the viability at 7 h, 5 µM was 94%.

Consider `CC#CI1OC(=O)c2ccccc21` [Compound 49, reference compound], for which the “RV50 (concentration needed to lower relative viability by 50%)” value in series [8] was 60 µM; in series [6] (setting [18]) it was >50 µM. For the same compound, the values for the IC50 in series [9], in series [10] and in [5] (setting [16]) were 40 µM, 10 µM and 53 µM, respectively. Moreover, the “MIC (concentration needed to reach 15% inhibition)” value in [9] was 4 µM (≈ 1.14 µg/mL); in series [10], 0.3 µM (≈ 0.0858 µg/mL); in [5] (setting [17]), 9 µM (≈ 2.57 µg/mL). Further, in series [1], the viability at 7 h, 5 µM was determined as 92%. Further, the IC15 in [5] (Homo sapiens, 1 h, read-out: MIC (concentration needed to reach 15% inhibition), transporter 28 5 μM, pre-incubation (P)) turned out to be 8.7 µM.

Usually viability stands for a read-out of living cells in per cent, often relative to untreated cells.

Values taken from article PMC9088311, “Cyclic Thiosulfonates for Thiol-Mediated Uptake: Cascade Exchangers, Transporters, Inhibitors” (JACS Au, 2022).
